Test results reported in publication PMC8861431, “Tissue Pharmacokinetic Properties and Bystander Potential of Hypoxia-Activated Prodrug CP-506 by Agent-Based Modelling” (Frontiers in Pharmacology, 2022).
Several values for one entry are separate records, joined by “and”; a condition that tells them apart may be missing. Identical values can stand only once. Like-named read-outs stand apart in the source and are kept apart here.

Key:
[1] = test system: HCT-116 cells (PORko-G, HCT-116 WT, POR-R); assay: Cellular metabolism assay (LC-MS/MS of reduced metabolites); type: in vitro ADME, human; conditions: for Metabolite concentration, fold lower in PORko-G cells than HCT-116 WT cells / Metabolite concentration, fold higher in POR-R cells than HCT-116 WT cells: after 1 h treatment with 100 µM CP-506, anoxic
Method: Aerobic and anoxic conditions were achieved as described above. Cells (5 x 10^5 per well) were seeded with 350 µl medium in duplicate into 24-well plates and left to attach for 2 h in a humidified 37°C incubator. A working solution of CP-506 was prepared in culture medium to achieve a 100 µM concentration in each well after the addition of a 500 µl volume. Plates were exposed to drug for 1 h in a humidified 37°C incubator. Metabolism was then halted by the addition of two-volumes of ice-cold acetonitrile containing 2 µM of internal standard for each analyte. Samples were stored at −80°C until LC-MS/MS analysis.
(§1) The LC system for tandem MS consisted of an Agilent 1200 autosampler (4°C) and binary pump, a 3.0 × 50 mm, 1.8-micron Zorbax SB-C18 column (Agilent; PN: 827975-302) and 2.1 × 7 mm guard column (Alltech, IL) maintained at 35°C, at a pressure of <400 bar and flow rate of 0.3 ml/min. The mobile phase comprised a gradient of 0.01% formic acid in 80% acetonitrile - 20% water, v/v (solvent A), and 0.01% formic acid in water (solvent B). Initial mobile phase composition was 20% solvent A and 80% solvent B, increasing to 60% A (0–3 min) then 80% A (3–5.45 min), returning to initial conditions (5.5–6 min). Post-run time was 1 min, and the total run time was […]. Mass spectrometric detection was carried out using an Agilent 6410 triple quadrupole mass spectrometer equipped with a multimode ionization (MMI) source. The mass spectrometer was operated in electrospray positive ionization mode using multiple reaction monitoring (MRM), with Q1 & Q3 set to unit resolution ([…]). The electrospray ionization parameters, optimized for the parent molecular ion ([M+H]+) abundance were: drying gas temperature 325°C, vaporiser temperature 150°C, drying gas flow 5 L/min, nebuliser pressure 50 psi, capillary voltage 1.8 kV, Delta EMV 300 V. Ultra-pure nitrogen was used as collision gas. The divert valve feature of the Agilent 6410 triple quadrupole mass spectrometer was utilised to prevent the eluate from entering the ionisation source chamber during the first 0.5 min of each run. For CP-506 samples, positively charged ions representing the [M+H]+ for CP-506 and CP-506-D8 were collisionally dissociated to form specific product ions which were monitored in MS2 (unit resolution). The MRM transition, ionization mode, collision energy, dwell time, fragmentor voltage and retention time for all compounds is provided in Supplementary Table S2. Agilent MassHunter software (v.4.04.00) was used for data acquisition and chromatographic peak integration.

[2] = Diffusion across bare collagen-coated support membrane (without cells); type: in vitro ADME; conditions: for D M: diffusion coefficient in medium: Table 1
Method: (§2) The extravascular transport properties of CP-506 and its formed metabolites were investigated using a custom-designed diffusion apparatus, as described previously ([Hicks et al., 2006]). Briefly, MCL cultures were established by seeding 1 x 10^6 POR-R cells onto collagen-coated Millicell-CM inserts for 3 days. Established MCLs were placed at the interface of the two media-filled compartments of diffusion chambers. Diffusion chambers were placed in a 37°C water bath and gassed with a supraoxic (95% O2, 5% CO2) or anoxic (5% CO2, bal N2) mixture for at least 1 h prior to drug addition. Flux was initiated by the addition of internal standard ([^14C]-urea) and 20 µM CP-506 to the donor compartment. Samples (100 µl) were collected from both the donor and receiver compartments for up to 5 h thereafter. At each time point, a 25 µl aliquot was mixed with emulsifier-safe water-accepting scintillant and assayed for radioactivity using a Perkin Elmer Tricard 2910 TR liquid scintillation analyser. The remaining sample was treated with two volumes of ice-cold acetonitrile (containing 2 µM of the relevant deuterated internal standards) and stored at −80°C until LC-MS/MS analysis. Similar experiments were performed using collagen-coated inserts without MCLs to deduce the chemical stability and diffusion coefficient of CP-506 across the bare support membrane.
(§3) Drug transport in MCLs was modelled as a one-dimensional diffusion with reaction across four consecutive compartments (stirred donor, POR-R MCL, collagen-coated teflon support membrane and stirred receiver) using a custom designed MatLab routine ([Foehrenbacher et al., 2013a]). Model parameters were derived by fitting Eq. 1 and Eq. 2 to the measured concentration-time profile of internal standard [^14C]-urea, CP-506, CP-506H and CP-506M in MCL flux studies. The flux of CP-506 and its metabolites across POR-R MCLs was described using Fick’s second law with a reaction term: ∂CeN/∂t=DN∂^2CeN/∂x^2−klossNCeN− φ( kinNCeN− koutNCiN) (1) ∂CiN/∂t= kmet0(N−1)Ci(N−1)+φ(kinNCeN− koutNCiN)−kmet0NCiN (2) where C is the concentration of the diffusing substance at position x and time t in the extracellular (e) or intracellular (i) compartment, D is the diffusion coefficient through either a bare support membrane (without cells) (D suo ) or extracellular space of a POR-R MCL (D MCL ), k loss is the rate constant for first-order loss (instability) in culture medium, k in and k out are the rate constants for transmembrane transport and k met0 is the rate constant for intracellular metabolism and instability for each compound (N). For metabolites, N-1 represents the previous compound from which the current compound is produced by metabolism. Experimental data was fitted iteratively to derive a tissue diffusion coefficient (DMCL) and metabolic scaling factor (φ i ) to restrain parameter estimates from the cellular PK model (Kin, Kout, Kmet0). The diffusion coefficient for CP-506 across the bare support membrane (Dsup) was determined by solving Eq. 1 with a reaction term only for chemical instability. MCL thicknesses were estimated by fitting the measured [^14C]-urea concentrations to those predicted by Eq. 1 and Eq. 2 without instability or metabolism by using the known diffusion coefficient (DMCL) for [^14C]-urea in HCT-116 MCLs ([Wilson et al., 2004]). The diffusion coefficient (DMCL) for CP-506 in POR-R MCLs was then fitted from the measured concentrations in the donor and receiver compartments of supraoxic experiments by assuming one-directional diffusion in the extracellular space. The metabolic scaling factor (φ i ) was then fitted from the measured concentrations in the donor and receiver compartment of anoxic experiments by fixing parameter estimates to the diffusion coefficient (DMCL) from supraoxic experiments.

[3] = test system: POR-R MCLs; assay: Multicellular layer (MCL) flux studies / (pro)drug transport model; type: in vitro ADME, human; conditions: for D s: diffusion coefficient in spheroid: Table 1
Method: as §2, §3

[4] = Media stability studies (stirred medium without serum, 37°C); type: physicochemical
Method: The stability of each compound was determined in stirred medium (without serum) maintained under aerobic conditions by the constant supply of a humidified gas mixture comprised of 21% O2, 5% CO2 with balance N2. Vials were spiked with 100 µM of the relevant compound, and samples were collected using a positive displacement pipettor for up to 3 h thereafter. The collected samples were then treated with two-volumes of ice-cold acetonitrile containing 2 µM of the relevant deuterated (D8) internal standard and stored at −80°C until LC-MS/MS analysis.
as §1

[5] = assumed equivalent to CP-506 for the active metabolites
[6] = 37°C, aerobic, medium without serum/cells, 100 µM, read-out: Half-life (T1/2) in stirred medium
[7] = buffer, Table 1, stirred culture medium at 37°C, read-out: Half-life: time required to reduce the concentration of drug to half of its initial value (converted)

Row | SMILES | Metabolite concentration, fold lower in PORko-G cells than HCT-116 WT cells [1] | D M: diffusion coefficient in medium [2, 5] | D s: diffusion coefficient in spheroid [3, 5] | half-life at 100 µM [4, 6] | half-life at 100 µM [4, 7] | Metabolite concentration, fold higher in POR-R cells than HCT-116 WT cells [1] | Metabolite production suppressed in POR knockout relative to the POR-overexpressing cell line ([1]; anoxic, Figure 3A) | Half-life (T1/2) in stirred medium ([4]; 37°C, aerobic, medium without serum/cells, 100 µM) | Fold longer half-life than CP-506H or CP-506M ([4]; stirred medium, Figure 3B) | D M: diffusion coefficient in medium ([2]; Dsup fitted for bare support membranes under supraoxic conditions) | Dsup: diffusion coefficient across bare support membranes ([2]; anoxic (5% CO2, bal N2)) | Dsup: diffusion coefficient across bare support membranes ([2]; supraoxic (95% O2, 5% CO2)) | D s: diffusion coefficient in spheroid ([3]; DMCL fitted in POR-R MCLs under supraoxic conditions) | DMCL: diffusion coefficient across POR-R MCLs ([3]; Table S4, anoxia, fixed to the supraoxic value) | DMCL: diffusion coefficient across POR-R MCLs ([3]; Table S4, supraoxia) | DMCL: diffusion coefficient across POR-R MCLs ([3]; supraoxic experiments) | Time without loss of mass balance in stirred medium ([4]; 37°C, aerobic, stirred medium)
1 | CCN1CCN(C(=O)c2cc(N(CCBr)CCOS(C)(=O)=O)c(S(C)(=O)=O)cc2N)CC1 [CP-506M, 2-((4-amino-5-(4-ethylpiperazine-1-carbonyl)-2-(methylsulfonyl)phenyl)(2-bromoethyl)amino)ethyl methanesulfonate] | 4.1 fold | 1.32 × 10^−6 ± 0.19 × 10^−6 cm^2s^−1 | 1.93 × 10^−7 ± 1.8 × 10^−8 cm^2s^−1 | 7.6 min | 7.8 min |  |  |  |  |  |  |  |  |  |  |  | 
2 | CCN1CCN(C(=O)c2cc(N(CCBr)CCOS(C)(=O)=O)c(S(C)(=O)=O)cc2NO)CC1 [CP-506H, 2-((2-bromoethyl)(5-(4-ethylpiperazine-1-carbonyl)-4-(hydroxyamino)-2-(methylsulfonyl)phenyl)amino)ethyl methanesulfonate] |  | 1.32 × 10^−6 ± 0.19 × 10^−6 cm^2s^−1 | 1.93 × 10^−7 ± 1.8 × 10^−8 cm^2s^−1 | 10.5 min | 10.8 min | 5.5 fold |  |  |  |  |  |  |  |  |  |  | 
3 | CCN1CCN(C(=O)c2cc(N(CCCl)CCCl)c(S(C)(=O)=O)cc2N)CC1 [CP-506M-Cl2, (2-Amino-5-(bis(2-chloroethyl)amino)-4-(methylsulfonyl)phenyl)(4-ethylpiperazin-1-yl)methanone] | 17.7 fold | 1.32 × 10^−6 ± 0.19 × 10^−6 cm^2s^−1 | 1.93 × 10^−7 ± 1.8 × 10^−8 cm^2s^−1 | 271 min | 271 min | 8.6 fold | 151 fold | 271 min | ≥ 10 fold |  |  |  |  |  |  |  | 
4 | CCN1CCN(C(=O)c2cc(N(CCBr)CCOS(C)(=O)=O)c(S(C)(=O)=O)cc2[N+](=O)[O-])CC1 [CP-506, 2-[(2-bromoethyl)-5-[(4-ethyl-1-piperazinyl)carbonyl]-2-(methylsulfonyl)-4-nitroanilino]ethyl methanesulfonate] |  |  |  |  | 1800 min |  |  |  |  | 1.32 × 10^−6 ± 0.19 × 10^−6 cm^2s^−1 | 0.717 ± 0.01 x 10^−6 cm^2 s^−1 and 0.717 ± 0.01 (3) x 10^−6 cm^2 s^−1 | 1.32 ± 0.19 x 10^−6 cm^2 s^−1 and 1.32 ± 0.19 (2) ^b x 10^−6 cm^2 s^−1 | 1.93 × 10^−7 ± 1.8 × 10^−8 cm^2s^−1 | 1.93 (fixed) x 10^-6 cm^2 s^-1 | 1.93 ± 0.01 (6) x 10^-6 cm^2 s^-1 | 1.93 ± 0.011 x 10^−7 cm^2s^−1 | over 360 min
